Source: ChEMBL document CHEMBL1201862, “PubChem BioAssay data set” (2004)
The source made the active and inactive calls.

Key:
CAAX prenyl protease 1 = CAAX prenyl protease 1 (Saccharomyces cerevisiae S288c, UniProt P47154); test: yeast CAAX protease Ste24 inhibition – biochemical, S. cerevisiae, plate reader, cherry-pick, dose response (AID 488815)
[1] = NIH-3T3 fibroblast cytotoxicity, dose response, cytotoxicity control, cell-based, fluorescence, Alamar Blue, secondary assay (AID 2327); type: functional;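 also: NIH-3T3 mouse fibroblasts cultured with fluconazole at 8 µg/mL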
[2] = molecular target: Dual specificity mitogen-activated protein kinase kinase 2 (Homo sapiens, UniProt P36507); test: Navigating the Kinome. Panel member name: MAP2K2; type: functional
[3] = molecular target: Dual specificity mitogen-activated protein kinase kinase 1 (Homo sapiens, UniProt Q02750); test: Navigating the Kinome. Panel member name: MAP2K1; type: functional
Dual specificity mitogen-activated protein kinase kinase 1, sequence (Q02750 whole entry): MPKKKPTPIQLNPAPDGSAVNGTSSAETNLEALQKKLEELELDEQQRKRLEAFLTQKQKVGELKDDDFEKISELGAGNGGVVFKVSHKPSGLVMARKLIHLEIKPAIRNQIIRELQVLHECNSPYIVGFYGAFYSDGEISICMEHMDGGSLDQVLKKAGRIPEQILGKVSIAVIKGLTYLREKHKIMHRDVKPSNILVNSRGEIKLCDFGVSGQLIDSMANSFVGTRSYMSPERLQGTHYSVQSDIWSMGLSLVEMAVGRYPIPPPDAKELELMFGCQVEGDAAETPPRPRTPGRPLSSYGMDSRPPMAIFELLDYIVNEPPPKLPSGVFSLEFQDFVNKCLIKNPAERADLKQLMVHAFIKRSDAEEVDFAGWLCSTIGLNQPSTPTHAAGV

[4] = molecular target: Leukocyte tyrosine kinase receptor (Homo sapiens, UniProt P29376); test: Navigating the Kinome. Panel member name: LTK; type: functional
Leukocyte tyrosine kinase receptor, sequence (P29376 whole entry): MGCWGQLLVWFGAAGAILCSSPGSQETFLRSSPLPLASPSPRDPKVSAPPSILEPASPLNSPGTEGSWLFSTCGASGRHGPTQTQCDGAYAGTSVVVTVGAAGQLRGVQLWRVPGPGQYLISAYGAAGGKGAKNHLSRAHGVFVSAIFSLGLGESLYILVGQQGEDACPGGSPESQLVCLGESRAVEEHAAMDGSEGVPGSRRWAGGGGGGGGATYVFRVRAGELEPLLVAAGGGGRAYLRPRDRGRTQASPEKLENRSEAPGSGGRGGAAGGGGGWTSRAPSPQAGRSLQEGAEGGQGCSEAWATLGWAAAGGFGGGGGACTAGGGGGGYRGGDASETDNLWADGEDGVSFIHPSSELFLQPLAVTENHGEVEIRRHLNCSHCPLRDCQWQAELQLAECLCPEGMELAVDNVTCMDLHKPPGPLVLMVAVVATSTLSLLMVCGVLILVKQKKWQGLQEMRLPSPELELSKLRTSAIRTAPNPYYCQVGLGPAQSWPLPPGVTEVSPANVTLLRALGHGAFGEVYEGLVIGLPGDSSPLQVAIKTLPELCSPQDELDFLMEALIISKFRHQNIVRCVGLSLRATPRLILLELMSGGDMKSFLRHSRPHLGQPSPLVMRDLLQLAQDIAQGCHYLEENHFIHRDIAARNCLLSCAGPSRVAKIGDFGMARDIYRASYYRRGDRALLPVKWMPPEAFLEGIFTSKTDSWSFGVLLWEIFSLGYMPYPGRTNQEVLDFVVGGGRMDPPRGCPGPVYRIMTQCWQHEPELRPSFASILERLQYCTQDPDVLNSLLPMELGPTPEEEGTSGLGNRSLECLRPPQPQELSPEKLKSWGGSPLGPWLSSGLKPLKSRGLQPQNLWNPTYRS

[5] = molecular target: Protein kinase C theta type (Homo sapiens, UniProt Q04759); test: Navigating the Kinome. Panel member name: PRKCQ; type: functional
[6] = molecular target: Leucine-rich repeat serine/threonine-protein kinase 2 (Homo sapiens, UniProt Q5S007); type: functional;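 also: value from a broad kinome-wide panel profiling study in which LRRK2 was one of the kinases tested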
[7] = molecular target: Proto-oncogene tyrosine-protein kinase ROS (Homo sapiens, UniProt P08922); type: functional;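 also: ROS1 tested as one member of a kinome-wide kinase panel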
[8] = molecular target: Calcium/calmodulin-dependent protein kinase type II subunit delta (Homo sapiens, UniProt Q13557); type: functional
Calcium/calmodulin-dependent protein kinase type II subunit delta, sequence (Q13557 whole entry): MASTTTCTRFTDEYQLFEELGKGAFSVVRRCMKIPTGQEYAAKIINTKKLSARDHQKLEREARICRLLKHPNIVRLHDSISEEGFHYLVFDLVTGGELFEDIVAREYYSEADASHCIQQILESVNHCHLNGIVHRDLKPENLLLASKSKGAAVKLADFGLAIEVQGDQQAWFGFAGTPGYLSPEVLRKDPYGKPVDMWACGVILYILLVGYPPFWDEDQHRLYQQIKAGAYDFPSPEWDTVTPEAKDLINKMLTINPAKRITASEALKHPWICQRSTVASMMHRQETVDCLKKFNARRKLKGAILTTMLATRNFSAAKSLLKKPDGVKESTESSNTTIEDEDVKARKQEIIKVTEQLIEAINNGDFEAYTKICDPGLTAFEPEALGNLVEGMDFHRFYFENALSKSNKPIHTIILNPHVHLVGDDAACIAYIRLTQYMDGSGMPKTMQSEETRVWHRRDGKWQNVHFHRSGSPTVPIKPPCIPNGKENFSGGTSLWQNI

[9] = molecular target: Dual specificity tyrosine-phosphorylation-regulated kinase 3 (Homo sapiens, UniProt O43781); type: functional;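 also: measured as one member of a broad kinase panel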
[10] = molecular target: Ribosomal protein S6 kinase alpha-5 (Homo sapiens, UniProt O75582); type: functional
[11] = molecular target: MAP kinase-activated protein kinase 5 (Homo sapiens, UniProt Q8IW41); type: functional;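 also: measured as one member of a kinome panel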
[12] = molecular target: Interleukin-1 receptor-associated kinase 4 (Homo sapiens, UniProt Q9NWZ3); type: functional
[13] = molecular target: Tyrosine-protein kinase Fer (Homo sapiens, UniProt P16591); type: functional;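 also: FER tested as one member of a kinome panel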
Tyrosine-protein kinase Fer, sequence (P16591 whole entry): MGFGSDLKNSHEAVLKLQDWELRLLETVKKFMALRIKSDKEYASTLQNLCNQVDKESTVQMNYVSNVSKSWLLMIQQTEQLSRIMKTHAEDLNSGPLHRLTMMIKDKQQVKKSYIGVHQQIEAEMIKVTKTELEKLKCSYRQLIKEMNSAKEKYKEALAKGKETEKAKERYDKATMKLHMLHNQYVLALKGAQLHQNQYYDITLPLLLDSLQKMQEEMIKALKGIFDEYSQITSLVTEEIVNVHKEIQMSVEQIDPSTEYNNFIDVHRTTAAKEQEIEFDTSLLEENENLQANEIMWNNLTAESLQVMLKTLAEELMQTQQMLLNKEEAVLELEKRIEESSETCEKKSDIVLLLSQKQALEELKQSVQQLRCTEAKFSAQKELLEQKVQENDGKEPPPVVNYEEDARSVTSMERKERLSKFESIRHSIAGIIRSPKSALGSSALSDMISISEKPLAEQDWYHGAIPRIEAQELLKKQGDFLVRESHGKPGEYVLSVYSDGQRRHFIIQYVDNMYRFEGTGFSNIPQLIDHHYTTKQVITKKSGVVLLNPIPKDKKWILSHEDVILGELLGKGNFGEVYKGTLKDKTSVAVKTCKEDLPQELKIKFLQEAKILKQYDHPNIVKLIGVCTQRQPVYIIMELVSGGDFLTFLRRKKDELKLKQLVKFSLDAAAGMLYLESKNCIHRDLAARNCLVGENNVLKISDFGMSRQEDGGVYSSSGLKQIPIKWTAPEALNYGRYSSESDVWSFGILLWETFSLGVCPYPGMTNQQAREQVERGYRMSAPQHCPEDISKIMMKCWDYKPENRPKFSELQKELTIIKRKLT

[14] = molecular target: Serine/threonine-protein kinase pim-3 (Homo sapiens, UniProt Q86V86); type: functional;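 also: value obtained as one member of a broad kinase panel profiling effort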
[15] = molecular target: Cyclin-dependent kinase 2 (Homo sapiens, UniProt P24941); type: functional;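 also: CDK2 measured as one member of a broad kinome profiling panel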
[16] = molecular target: Receptor-type tyrosine-protein kinase FLT3 (Homo sapiens, UniProt P36888); type: functional;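 also: FLT3 was tested as one member of a kinome-wide kinase panel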
Focal adhesion kinase 1 = Focal adhesion kinase 1 (Homo sapiens, UniProt Q05397); type: functional;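 also: measured as one member of a kinome panel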
[17] = molecular target: RAC-gamma serine/threonine-protein kinase (Homo sapiens, UniProt Q9Y243); type: functional
[18] = molecular target: Tyrosine-protein kinase SYK (Homo sapiens, UniProt P43405); type: functional
[19] = molecular target: Serine/threonine-protein kinase PLK3 (Homo sapiens, UniProt Q9H4B4); type: functional
[20] = molecular target: Vascular endothelial growth factor receptor 3 (Homo sapiens, UniProt P35916); type: functional;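 also: value from a kinome-wide profiling panel, with FLT4 as the panel member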
Vascular endothelial growth factor receptor 3, sequence (P35916 whole entry): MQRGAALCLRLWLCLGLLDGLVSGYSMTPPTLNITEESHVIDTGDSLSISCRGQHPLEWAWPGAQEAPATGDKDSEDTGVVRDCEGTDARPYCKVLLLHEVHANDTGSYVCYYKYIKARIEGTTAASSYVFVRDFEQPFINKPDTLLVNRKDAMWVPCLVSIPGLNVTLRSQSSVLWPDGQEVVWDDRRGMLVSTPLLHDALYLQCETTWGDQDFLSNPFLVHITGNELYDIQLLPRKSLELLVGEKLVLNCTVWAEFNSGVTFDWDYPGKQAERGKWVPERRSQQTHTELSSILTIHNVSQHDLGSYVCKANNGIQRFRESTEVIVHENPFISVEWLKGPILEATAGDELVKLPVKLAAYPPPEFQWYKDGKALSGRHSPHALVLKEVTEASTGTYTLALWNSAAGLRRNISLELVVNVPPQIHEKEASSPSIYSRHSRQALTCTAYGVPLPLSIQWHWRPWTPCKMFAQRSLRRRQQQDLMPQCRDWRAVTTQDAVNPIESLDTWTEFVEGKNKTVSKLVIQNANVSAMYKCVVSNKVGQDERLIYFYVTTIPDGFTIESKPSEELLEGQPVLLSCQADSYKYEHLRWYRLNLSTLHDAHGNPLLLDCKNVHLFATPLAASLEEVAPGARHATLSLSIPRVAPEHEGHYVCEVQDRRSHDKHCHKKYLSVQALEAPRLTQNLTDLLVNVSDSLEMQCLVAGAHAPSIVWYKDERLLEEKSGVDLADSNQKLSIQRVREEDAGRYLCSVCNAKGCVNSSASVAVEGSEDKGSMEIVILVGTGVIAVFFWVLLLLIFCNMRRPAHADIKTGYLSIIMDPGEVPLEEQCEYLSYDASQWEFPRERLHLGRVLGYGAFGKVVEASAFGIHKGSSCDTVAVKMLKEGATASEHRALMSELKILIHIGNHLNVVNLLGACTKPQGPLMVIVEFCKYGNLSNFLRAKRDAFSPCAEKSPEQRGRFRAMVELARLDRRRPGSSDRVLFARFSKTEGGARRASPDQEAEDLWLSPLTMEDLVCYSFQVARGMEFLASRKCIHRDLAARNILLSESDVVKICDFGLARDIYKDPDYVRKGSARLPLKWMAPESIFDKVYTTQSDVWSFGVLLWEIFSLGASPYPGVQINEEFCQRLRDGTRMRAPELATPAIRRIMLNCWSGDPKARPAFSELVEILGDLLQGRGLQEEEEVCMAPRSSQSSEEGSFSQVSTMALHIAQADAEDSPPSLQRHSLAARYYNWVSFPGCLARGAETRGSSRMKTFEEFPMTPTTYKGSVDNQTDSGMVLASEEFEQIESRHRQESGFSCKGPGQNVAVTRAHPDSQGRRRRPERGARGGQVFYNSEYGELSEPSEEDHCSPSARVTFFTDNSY

[21] = molecular target: Eukaryotic elongation factor 2 kinase (Homo sapiens, UniProt O00418); type: functional
[22] = molecular target: Serine/threonine-protein kinase DCLK1 (Homo sapiens, UniProt O15075); type: functional;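 also: affinity for DCLK1 (listed as DCAMKL1) measured as one member of a kinome-wide kinase profiling panel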
[23] = molecular target: Tyrosine-protein kinase Lck (Homo sapiens, UniProt P06239); type: functional;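 also: lck was assayed as one member of a kinase panel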
Tyrosine-protein kinase Lck, sequence (P06239 whole entry): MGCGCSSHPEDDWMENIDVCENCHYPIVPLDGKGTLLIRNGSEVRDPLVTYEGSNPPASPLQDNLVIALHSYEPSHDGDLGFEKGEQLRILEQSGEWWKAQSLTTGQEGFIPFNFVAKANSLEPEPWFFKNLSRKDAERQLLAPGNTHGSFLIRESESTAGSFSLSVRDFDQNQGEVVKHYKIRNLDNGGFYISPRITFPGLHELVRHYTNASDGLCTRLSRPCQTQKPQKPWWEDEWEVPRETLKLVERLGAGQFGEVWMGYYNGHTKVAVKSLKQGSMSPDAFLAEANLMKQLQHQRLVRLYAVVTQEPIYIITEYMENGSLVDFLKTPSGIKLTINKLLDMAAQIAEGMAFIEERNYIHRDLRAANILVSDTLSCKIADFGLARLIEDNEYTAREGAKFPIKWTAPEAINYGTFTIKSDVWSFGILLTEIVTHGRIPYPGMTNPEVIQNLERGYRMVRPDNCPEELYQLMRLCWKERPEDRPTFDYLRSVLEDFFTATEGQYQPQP

[24] = molecular target: STE20-like serine/threonine-protein kinase (Homo sapiens, UniProt Q9H2G2); type: functional
[25] = Luminescence Cell-Based Dose Confirmation HTS to Identify Activators of 5'UTR Stem-Loop Driven Alpha-Synuclein mRNA Translation in H4 Neuroglioblastoma Cells. [Related pubchem assays: 1829 (Project Summary), 1814 (Primary HTS)]; type: functional
Hexokinase HKDC1 = molecular target: T1, Hexokinase HKDC1 (Homo sapiens, UniProt Q2TB90); test: inhibition of HKDC1 glucose phosphorylation – biochemical, W721R variant, dose response (AID 504729); type: functional
T1 sequence (Q2TB90 whole entry): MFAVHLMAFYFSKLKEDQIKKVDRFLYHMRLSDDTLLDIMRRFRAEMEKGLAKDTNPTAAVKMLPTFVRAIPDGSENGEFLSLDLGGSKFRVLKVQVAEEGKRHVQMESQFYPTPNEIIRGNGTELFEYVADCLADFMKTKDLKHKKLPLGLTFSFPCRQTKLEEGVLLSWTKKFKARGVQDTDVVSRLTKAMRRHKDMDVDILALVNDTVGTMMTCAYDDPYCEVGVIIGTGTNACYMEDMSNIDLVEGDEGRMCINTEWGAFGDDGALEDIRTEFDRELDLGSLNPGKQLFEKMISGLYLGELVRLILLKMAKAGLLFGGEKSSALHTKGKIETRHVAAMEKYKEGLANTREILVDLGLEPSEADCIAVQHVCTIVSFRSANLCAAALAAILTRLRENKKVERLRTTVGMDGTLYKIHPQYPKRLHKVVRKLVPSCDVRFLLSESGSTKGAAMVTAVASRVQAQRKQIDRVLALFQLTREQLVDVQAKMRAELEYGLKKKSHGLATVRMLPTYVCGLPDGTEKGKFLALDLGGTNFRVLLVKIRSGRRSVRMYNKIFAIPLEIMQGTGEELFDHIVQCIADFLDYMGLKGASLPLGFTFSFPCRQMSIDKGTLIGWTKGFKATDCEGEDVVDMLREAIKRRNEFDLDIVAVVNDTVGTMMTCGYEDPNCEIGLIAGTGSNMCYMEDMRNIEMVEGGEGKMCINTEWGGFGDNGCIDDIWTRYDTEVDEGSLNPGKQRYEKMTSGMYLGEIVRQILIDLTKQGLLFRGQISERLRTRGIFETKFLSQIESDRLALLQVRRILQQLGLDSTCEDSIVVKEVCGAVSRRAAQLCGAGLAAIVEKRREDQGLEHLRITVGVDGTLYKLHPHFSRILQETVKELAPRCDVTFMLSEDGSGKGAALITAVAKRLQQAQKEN

In the case of CCCCCCCCCCC[N+](C)(C)CC/C=C1/c2ccccc2Sc2ccc(Cl)cc21, the AC50 (CAAX prenyl protease 1) is reported as 7070 nM (active) and the EC50 [1] is reported as > 150000 nM (inconclusive).
In the case of CCn1c(-c2nonc2N)nc2cncc(C(=O)N3CCC(N)C3)c21 (stereo not drawn), the Ki [2] is reported as > 3980 nM (inactive), the Ki [3] is reported as > 2510 nM (inactive) and the Ki [4] is reported as > 2510 nM (inactive). The Ki [5] was 100 nM (active) and the Ki [6] was 631 nM (active).
For Cc1[nH]nc2ccc(-c3cncc(OCC(N)Cc4c[nH]c5ccccc45)c3)cc12 (stereo not drawn), the Ki [7] was 794 nM (active), the Ki [8] was 15.8 nM (active) and the Ki [9] was 794 nM (active). The Ki [10] was 0.794 nM (active), the Ki [11] was > 1580 nM (inactive) and the Ki [12] was 794 nM (active). For the same compound, the Ki [13] was > 1580 nM (inactive), the Ki [14] was 10 nM (active) and the Ki [15] was 50.1 nM (active). For the same compound, the Ki [16] was 316 nM (active), the Ki (Focal adhesion kinase 1) was > 1580 nM (inactive) and the Ki [17] was 6.31 nM (active). For the same compound, the Ki [18] was > 1580 nM (inactive), the Ki [19] was > 7940 nM (inactive) and the Ki [20] was 1580 nM (active). For the same compound, the Ki [21] was > 3980 nM (inactive), the Ki [22] was 6310 nM (active) and the Ki [23] was > 2510 nM (inactive). For the same compound, the Ki [24] was > 10000 nM (inactive).
For COC(=O)c1ccccc1NC1=C/C(=N\S(=O)(=O)c2cccs2)c2ccccc2C1=O, the EC50 [25] was > 120000 nM (not active) and the IC50 (Hexokinase HKDC1) was 27500 nM (inactive).
